We go through 56 compounds from BindingDB's records for doi:10.1002/cmdc.202100576 (Experimental Drug Development Centre, 2021).

Common to all, as to experiment: Various Assay
In experiment [1] the target is Replicase polyprotein 1ab (Severe acute respiratory syndrome coronavirus, UniProt P0C6X7).
For experiment [2], the target named is Replicase polyprotein 1ab (Middle East respiratory syndrome-related coronavirus (isolate United Kingdom/H123990006/2012), UniProt K9N7C7).
Experiment [3] deals with Replicase polyprotein 1ab (Severe acute respiratory syndrome coronavirus 2, UniProt P0DTD1).

Structures are written as SMILES. Several values for one entry are separate records, joined by “and”; a condition that tells them apart may be missing. Equal entries are not always repeated.

For the compound `O=C1C(=O)N(Cc2ccc3ccccc3c2)c2ccc(C(=O)N3CCCCC3)cc21` [cmdc.202100576, 13f], the midpoint of inhibition in experiment [1], the IC50, lay at 87800 nM.
Same read-out and setting: the result for `CC(C)C(=O)Nc1ccc(N(C(=O)Cn2nnc3ccccc32)[C@H](C(=O)NCc2ccccc2)c2ccc(Cl)c(F)c2)cc1` [cmdc.202100576, 19b] reads 800 nM; that for `COc1cccc2[nH]c(C(=O)N[C@@H](CC(C)C)C(=O)N[C@@H](C[C@@H]3CCNC3=O)C(C)=O)cc12` [WO2006061714, P38.5], 2300 nM.
With `COC(=O)/C=C/[C@H](C[C@@H]1CCNC1=O)NC(=O)[C@H](CC(C)C)NC(=O)[C@@H](NC(=O)OCc1ccccc1)C(C)NC(=O)C(C)(C)C` (some centres undefined) [cmdc.202100576, 5f], in experiment [1], the Ki amounted to 38 nM.
`COc1cccc2[nH]c(C(=O)N(C)[C@@H](CC(C)C)C(=O)N[C@@H](C[C@@H]3CCNC3=O)C(=O)CO)cc12` [WO2005113580-Ex-29] showed a half-inhibitory concentration (IC50) in experiment [1] of 83 nM.
Turning to `Fc1ccc(SSc2nccs2)cc1` [cmdc.202100576, 17f], the IC50 in experiment [1] amounted to 2200 nM.
The same measure, in the same setting: the result for `O=c1c(O[C@@H]2O[C@H](CO[C@@H]3OC[C@H](O)[C@H](O)[C@H]3O)[C@@H](O)[C@H](O)[C@H]2O)c(-c2ccc(O)c(O)c2)oc2cc(O)cc(O)c12` [cmdc.202100576, 12c] reads 31600 nM.
As for `CC(C)C[C@H](NC(=O)OCCc1cccc(Cl)c1)C(=O)N[C@@H](C[C@@H]1CCNC1=O)C(O)S(=O)(=O)O` (some centres undefined) [cmdc.202100576, 20f], the IC50 in experiment [2] was determined as 700 nM.
`CC(C)(C)c1ccc(N(C(=O)c2c[nH]cn2)[C@H](C(=O)NC2CCCC2)c2cccnc2)cc1` [cmdc.202100576, 19e]: the IC50 in experiment [1] stood at 1700 nM.
`O=C[C@H](CC1CCNC1=O)NC(=O)[C@H](Cc1ccccc1)NC(=O)c1cc2ccccc2[nH]1` (some centres undefined) [cmdc.202100576, 18b]: the IC50 in experiment [3] came to 34 nM; in experiment [1] it was 30 nM.
`CC(C)C(=O)Nc1ccc(N(C(=O)Cn2nnc3ccccc32)[C@H](C(=O)NCc2ccccc2)c2cccc(F)c2)cc1` [cmdc.202100576, 19d] registered an IC50 in experiment [1] of 1600 nM.
Still for that read-out and setting: the result for `COC(C)[C@H](NC(=O)OCc1ccccc1)C(=O)N[C@@H](CC(C)C)C(=O)N[C@@H](C[C@@H]1CCNC1=O)C(=O)C(=O)NC(C)C` (some centres undefined) [cmdc.202100576, 22c] reads 6.8 nM; that for `C=C(N[C@H](C=O)CC1CCNC1=O)[C@H](Cc1ccccc1)NC(=O)[C@@H](NC(=O)c1cncc(F)c1)C(C)C` (some centres undefined) [cmdc.202100576, 18c], 35 nM.
The same measure, in the same setting: the result for `CC(C)C[C@@H](NC(=O)OCc1ccccc1)C(=O)N[C@@H](C=O)CC1CCNC1=O` (some centres undefined) [cmdc.202100576, 14b] reads 3500 nM.
`O=C(NCc1ccccc1)C(=O)[C@H](C[C@@H]1CCCNC1=O)NC(=O)[C@H](Cc1ccccc1)NC(=O)c1cc2ccccc2[nH]1` [cmdc.202100576, 23c] displayed an IC50 in experiment [2] below 1 nM.
For `CC(C)C[C@H]1C(=O)N[C@H](C=O)CCC(=O)NCCCn2cc(nn2)C[C@@H]1CC(=O)OCc1ccccc1` [cmdc.202100576, 16c], in experiment [1], the IC50 came to 15500 nM.
For the compound `CC(C)[C@H](NC(=O)c1cc2ccccc2[nH]1)C(=O)N[C@@H](Cc1ccccc1)C(=O)N[C@H](C=O)CC1CCNC1=O` (some centres undefined) [cmdc.202100576, 18d], the figures for the half-maximal inhibitory concentration (IC50) in experiment [3] and in experiment [1] were 68 nM and 50 nM, respectively.
For the compound `O=C(Oc1ccc(S(=O)(=O)c2ccc(OC(=O)C(Cl)=C(Cl)Cl)cc2Cl)cc1)C(Cl)=C(Cl)Cl` [cmdc.202100576, 7b], in experiment [1], the IC50 worked out at 900 nM.
In experiment [1], `Nc1cc(B(O)O)cc(C(=O)OCc2cccc(B(O)O)c2)c1` [cmdc.202100576, 4c] came in with a Ki of 3500 nM.
On to `CC(C)C[C@H](NC(=O)[C@H](CN1CCC(F)CC1)NC(=O)OCc1ccccc1)C(=O)N[C@@H](C[C@@H]1CCNC1=O)C(=O)C(=O)NC(C)C` [cmdc.202100576, 22f], for which, in experiment [1], the IC50 amounted to 7 nM.
In experiment [1], `CC(C)C[C@H](NC(=O)[C@H](CN1CCOCC1)NC(=O)OCc1ccccc1)C(=O)N[C@@H](C[C@@H]1CCNC1=O)C(=O)C(=O)NC(C)C` [cmdc.202100576, 22e] gave an IC50 of 7 nM.
Same read-out and setting: for `CC(C)C[C@@H](NC(=O)[C@H](Cc1cccc2ccccc12)NC(=O)OCc1ccccc1)C(=O)N[C@@H](C=O)CC1CCNC1=O` (some centres undefined) [cmdc.202100576, 14e] the value was 230 nM.
As to `O=C(NCc1ccccc1)C(=O)[C@H](C[C@@H]1CCCNC1=O)NC(=O)[C@H](CC1CCCCC1)NC(=O)c1cc2ccccc2[nH]1` [cmdc.202100576, 23e], the IC50 in experiment [2] came out at 2 nM.
The same measure, in the same setting: the result for `CC(C)C[C@H](NC(=O)OC1CCN(C(=O)OC(C)(C)C)CC1)C(=O)N[C@@H](C[C@@H]1CCNC1=O)C(O)S(=O)(=O)O` (some centres undefined) [cmdc.202100576, 20b] reads 300 nM and 600 nM.
In experiment [1], `O=C[C@H](CC1CCNC1=O)NC(=O)[C@H](Cc1ccccc1)NC(=O)c1cc2cc(F)ccc2[nH]1` (some centres undefined) showed an IC50 of 111 nM.
Still for that read-out and setting: for `CC(C)C[C@@H](NC(=O)OCc1ccccc1)C(=O)N[C@H](CC1CCNC1=O)C(=O)C(=O)NC(C)C` (some centres undefined) [cmdc.202100576, 14d] the value was 4700 nM; for `COc1cccc2[nH]c(C(=O)N[C@@H](CC(C)C)C(=O)N[C@@H](C[C@@H]3CCNC3=O)C(=O)COC(=O)C3CC3)cc12` [WO2005113580-Ex-37], 162 nM; for `O=C1C(=O)N(Cc2ccc3ccccc3c2)c2ccc(C(=O)N3CCCC3)cc21` [cmdc.202100576, 13e], 70300 nM.
`Cc1cc(C(=O)N[C@@H](C)C(=O)N[C@H](C(=O)N[C@@H](CC(C)C)C(=O)N[C@H](C=CC(=O)OCc2ccccc2)C[C@@H]2CCNC2=O)C(C)C)no1` [the N3 Compound]: the half-maximal inhibitory concentration (IC50) in experiment [1] is 9000 nM.
On the same count and under the same terms, for `CC(C)C[C@H](NC(=O)c1nc2ccccc2[nH]1)C(=O)N[C@H](C=O)C[C@@H]1CCNC1=O` [WO2006061714-ID-09] the value was 30 nM.
Same read-out and setting: for `CC1CCN(C(=O)c2ccc3c(c2)C(=O)C(=O)N3Cc2ccc3ccccc3c2)CC1` [cmdc.202100576, 13b] the value was 19700 nM; for `O=C(Nc1ccc(N(C(=O)Cn2nnc3ccccc32)[C@H](C(=O)NCc2ccccc2)c2ccsc2)cc1)C1CC1` [cmdc.202100576, 19f], 2000 nM; for `CC(C)(C)NC(=O)C(=O)[C@H](C[C@@H]1CCNC1=O)NC(=O)[C@H](CC1CCCCC1)NC(=O)[C@H](Cc1cccc2ccccc12)NC(=O)OCc1ccc(OCN2CCOCC2)cc1` [cmdc.202100576, 22b], 6.6 nM.
For `O=C(Oc1c(Cl)cc(Cl)cc1[N+](=O)[O-])c1cc(B(O)O)cc([N+](=O)[O-])c1` [cmdc.202100576, 4e], the Ki in experiment [1] is 6900 nM.
In turn, `O=C(Sc1nnc(C(F)(F)F)[nH]1)C1CCC(C#Cc2ccccc2)O1` (centres undefined) [cmdc.202100576, 7c] gave an IC50 in experiment [1] of 3000 nM.
In turn, `O=C(NCc1ccccc1)C(=O)[C@H](C[C@@H]1CCCNC1=O)NC(=O)[C@H](CC1CCCCC1)NC(=O)c1cnc2ccccc2n1` [cmdc.202100576, 23f] displayed an IC50 in experiment [2] of 5 nM.
On the same count and under the same terms, the result for `CC(C)C[C@H](NC(=O)OC1CCN(S(C)(=O)=O)CC1)C(=O)N[C@@H](C[C@@H]1CCNC1=O)C(O)S(=O)(=O)O` (some centres undefined) [cmdc.202100576, 20c] reads 500 nM.
As for `O=C1c2c(O)cc(O)cc2O[C@@H](c2ccc(O)c(O)c2)[C@@H]1O` [cmdc.202100576, 15], half-maximal inhibition in experiment [1] (IC50) was put at 73000 nM.
Compound `CC(C)C[C@H](NC(=O)OC1(Cc2ccccc2)CCN(C(=O)OC(C)(C)C)CC1)C(=O)N[C@@H](C[C@@H]1CCNC1=O)C(O)S(=O)(=O)O` (some centres undefined) [cmdc.202100576, 20d] gave a half-maximal inhibitory concentration (IC50) in experiment [2] of 600 nM.
Regarding `CC(C)C[C@@H](NC(=O)[C@H](Cc1cccc2ccccc12)NC(=O)OCc1ccccc1)C(=O)N[C@H](CC1CCNC1=O)C(=O)C(=O)NC(C)C` (some centres undefined) [cmdc.202100576, 14f], the IC50 in experiment [1] turned out to be 810 nM.
On the same count and under the same terms, for `CN1C(=O)C(=O)c2cc(C(=O)N3CCOCC3)ccc21` [cmdc.202100576, 13d] the value was 36400 nM.
As for `O=C(Nc1ccc(NC(=O)c2cc(B(O)O)cc([N+](=O)[O-])c2)cc1)c1cc(B(O)O)cc([N+](=O)[O-])c1` [acs.jmedchem.1c00409_ST.31], in experiment [1], the affinity, expressed as Ki, was 22 nM.
Consider `O=[N+]([O-])c1ccccc1SSc1nccs1` [cmdc.202100576, 17d], for which inhibition in experiment [1] was half-maximal at 2000 nM (IC50).
`CC(C)C[C@H](NC(=O)[C@@H](NC(=O)OCc1ccccc1)C(C)OC(C)(C)C)C(=O)N[C@H](/C=C/C(=O)OC1CC1)C[C@@H]1CCNC1=O` (some centres undefined) [cmdc.202100576, 5e]: in experiment [1], the Ki was 99 nM.
On to `O=C(NC1CCCCC1)C(=O)[C@H](C[C@@H]1CCCNC1=O)NC(=O)[C@H](CC1CCCCC1)NC(=O)c1cc2ccccc2o1` [cmdc.202100576, 23b], for which the IC50 in experiment [2] was below 1 nM.
Regarding `CC(C)C[C@H](NC(=O)[C@H](CN(C)C)NC(=O)OCc1ccccc1)C(=O)N[C@@H](C[C@@H]1CCNC1=O)C(=O)C(=O)NC(C)(C)C` [cmdc.202100576, 22d], half-maximal inhibition in experiment [1] (IC50) was put at 7 nM.
With `O=C(Oc1ccc(OC(=O)c2cc(B(O)O)cc([N+](=O)[O-])c2)cc1)c1cc(B(O)O)cc([N+](=O)[O-])c1` [cmdc.202100576, 4b], the affinity in experiment [1] corresponds to a Ki of 6700 nM.
`CC(C)C(=O)Nc1ccc(N(C(=O)Cn2nnc3ccccc32)[C@H](C(=O)NCc2ccccc2)c2ccc(O)cc2)cc1` [cmdc.202100576, 19c]: inhibition in experiment [1] was half-maximal at 1100 nM (IC50).
Consider `Cc1ccc(SSc2nccs2)cc1` [cmdc.202100576, 17b], for which, in experiment [1], the IC50 turned out to be 1300 nM.
Consider `CCOC(=O)/C=C/[C@@H](C[C@H]1CCNC1=O)NC(=O)[C@@H](CC(C)C)NC(=O)[C@H](NC(=O)OCc1ccccc1)C(C)OC(C)(C)C` (some centres undefined) [cmdc.202100576, 5b], for which, in experiment [1], the affinity, expressed as Ki, was 58 nM.
As to `CC(=O)Nc1cnc(SSc2ccccc2[N+](=O)[O-])s1` [cmdc.202100576, 17c], the IC50 in experiment [1] stood at 1900 nM.
Turning to `O=C[C@H](CC1CCNC1=O)NC(=O)[C@H](Cc1ccccc1)NC(=O)c1ccc2c(c1)OCO2` (some centres undefined) [cmdc.202100576, 18e], the IC50 in experiment [3] was 78 nM; in experiment [1] it was 100 nM.
For `COC(=O)c1c[nH]c(SSc2ccccc2[N+](=O)[O-])n1` [cmdc.202100576, 17e], the midpoint of inhibition in experiment [1], the IC50, lay at 2000 nM.
For the compound `O=C(O)c1cc(O)cc(B(O)O)c1` [cmdc.202100576, 4d], in experiment [1], the Ki came out at 3500 nM.
The compound `O=C(NCc1ccccc1)C(=O)[C@H](C[C@@H]1CCCNC1=O)NC(=O)[C@H](Cc1ccccc1)NC(=O)c1cnc2ccccc2n1` [cmdc.202100576, 23d] displayed a concentration for half-maximal inhibition (IC50) in experiment [2] of 2 nM.
With `O=C1C(=O)N(Cc2ccccc2)c2ccc(C(=O)N3CCCC3)cc21` [cmdc.202100576, 13c], inhibition in experiment [1] was half-maximal at 22900 nM (IC50).

Broadly, the IC50 is the concentration that inhibits the measured activity by half. A low value points to higher potency. For orientation: Ki means the equilibrium dissociation constant of an inhibitor or competing ligand from its target. The low end stands for higher affinity, the high end for lower affinity.
